Reference: patent EP0555938A1, “Use of phenoxyacetate derivatives for the restoration of neural function” (Albert ROLLAND S.A., priority 1992, dated 1993)

Assays:
nerf sciatique [1] = assay: Regeneration of the sciatic nerve after exposure to cold (plantar pain perception, Randal et Sellito apparatus); format: in vivo, rats Charles RIVER; conditions: 500 mg/kg P.U/jour
Method: L'étude est menée sur des lots de rats Charles RIVER (100-110 g), anesthésiés au Mébubarbital (30 mg/kg I.P).
Le nerf sciatique droit est isolé et on en pratique la congélation sur une longueur de 3 mm, au niveau du tiers supérieur de la cuisse. Cette congélation est réalisée par applications successives, pendant 30 secondes chacune, de petites masses métalliques adaptées sur un champ d'artère et plongées, préalablement, dans l'azote liquide.
Le traitement par les produits à étudier est pratique à partir du premier jour après l'opération (J₁), jusqu'à J₁₂.
La regénération nerveuse éventuelle est recherchée par la mesure de la perception douloureuse au niveau plantaire des deux pattes postérieures des animaux, en utilisant l'appareil de Randal et Sellito qui permet l'évaluation de la sensibilité locale par application d'un poids progressivement augmenté en fonction du temps.
Les résultats sont exprimés à partir des mesures réalisées sur chaque patte, 4 heures après le dernier traitement. La valeur de la regénération de la sensibilité, donc de la regénération nerveuse, est représentée par la différence de réponse au test de la patte au nerf lésé par rapport à la patte contralatérale intacte.
L'analyse statistique est faite sur les deux séries de valeurs par analyse de Kruskall-Wallis et test U de Mann-Whitney. […]

nerf sciatique [2] = assay: Speed of sensory reinnervation after freezing lesion of the sciatic nerve (latency of somesthetic evoked potential); format: in vivo, rat whistar mâle; conditions: 150 mg/kg, another batch of rats (Fig. 2)
Method: La vitesse de réinnervation sensitive après lésion du nerf sciatique et dégénérescence wallerienne a été étudiée chez le rat whistar mâle de 210 g ± 10 g. Le nerf sciatique droit a été lésé par congélation au moyen d'une cryode à cataracte portée à -170°C pendant 30 secondes en 3 points d'une même circonférence, située au tiers supérieur de la cuisse, à 90 ± 5 mm de la pénétration du nerf dans la région plantaire. Le nerf fémoris interne était excisé sur plusieurs cm. La récupération sensitive a été appréciée en mesurant la latence du potentiel évoqué somesthésique recueilli au niveau de l'aire primaire contralatérale et homolatérale, au moyen d'électrodes métalliques extra-durémériennes scéllées et laissées à demeure. La réponse était évoquée en stimulant le coussinet le plus interne de la sole plantaire droite au moyen d'un choc électrique de 5 mA délivré à courant constant pendant 2 ms toutes les 620 ms. Les réponses étaient moyennées de 500 à 2.000 fois et leurs latences mesurées avec une précision de ± 0,5 ms.
La latence de la réponse positive (P1) la plus précoce et à seuil le plus bas, a été mesurée et comparée chez trois groupes d'animaux aux jours J +25, +29, +33, +38, +43. Le groupe de témoins (n=11) a reçu par gavage 6 jours sur 7, 0,5 g/kg de gomme arabique. […]

Compound | réactivité (perception douloureuse au niveau plantaire, patte lésée vs patte contralatérale) (nerf sciatique [1]; sixth day after operation, oral, in water) | amélioration de la réactivité (regénération de la sensibilité) (nerf sciatique [1]; twelfth day after operation, 4 h after last treatment, oral (plate no. 3)) | modification dans la regénération des fibres nerveuses (nerf sciatique [2])
CN(C)CCOC(=O)COc1ccc(Cl)cc1 [Méclofénoxate] | tendance à une meilleure réactivité | l'amélioration est significative | –
CC(C)Nc1ncccn1 [isaxonine] | – | – | aucune modification sensible
